{"source": "patent US10729693B2", "about": "“Compositions and methods for the treatment of endometriosis” (PONCE MEDICAL SCHOOL FOUNDATION, INC., priority 2018, dated 2020)", "key": {"implantation sites": {"tested_on": "implantation sites", "conditions": "rodents; Fas-ligand immune tolerance dependent mechanism; cited from earlier work"}, "[1]": {"tested_on": "CRHR1, CRHR2, CRH and GR mRNA in hippocampus", "assay": "qRT-PCR of mRNA levels in hippocampus", "format": "in vivo, rat", "conditions": "day 60", "description": "(§1) Endometriosis vesicles and normal uterine tissue from endometriosis or sham rats, were lysed in an RLT buffer (QIAGEN, Germantown, Md.) using the BULLET BLENDER Tissue Homogenizer (NEXT ADVANCE, Averill Park, N.Y.). The total RNA from the lysates were extracted according to RNEASY Mini Kit manufacturer's protocol (QIAGEN, Germantown, Md.). RNA concentration and purity were measured on a NanoDrop™ 2000 UV spectrophotometer (Thermo Scientific™, Wilmington, USA). Concentration and quality of RNA samples were acquired based on the ratio of absorbance at 260/280 nm in the spectrophotometer. To carry out the synthesis of cDNA from RNA samples a total reaction volume of 20 μl including 0.1 μg of total RNA concentration and synthesis reagents was used. A iScript™ cDNA Synthesis Kit was used according to manufacturer's protocol (BIO-RAD, Hercules, Calif.). Reactions were carried out in T-100™ thermal cycler (BIO-RAD, Hercules, Calif.). RT-PCR running method was as follows: 25° C. for 5 min, 42° C. for 30 min, 85° C. for 5 min. Samples were stored at −80° C. for later experimentation or qRT-PCR.\n(§2) Real time quantitative PCR (qPCR) was used to evaluate changes in mRNA expression. For this, 25 μl of a total volume of reaction assay was used with 1:10 dilution of cDNA with iQ™ SYBR Green Supermix (BIO-RAD Hercules, Calif.) in a 96 well plate according to the manufacturer protocol and amplified in a Quant Studio™ 12 K Flex Real time PCR System (Applied Biosystems™, Carlsbad, Calif.). Commercial primers for CRH, UCN1 CRHR1, CRHR2 and glucocorticoid receptor (GR) were purchased from QIAGEN (Germantown, Md.). Real time PCR cycles protocol was as follows: 95° C. for 10 min. for enzyme activation followed by 40 cycles of denaturing at 95° C. for 15 sec. and annealing at 60° C. for 1 min. All changes in gene expression were normalized against GAPDH of each sample. CT values and changes per gene expression level were automatically analyzed by the Quantstudio™ 12 K Flex Software (Applied Biosystems™, Carlsbad, Calif.). All samples were run in duplicate. For comparison purposes, mRNA from sham rats were always run within the same plate as experimental samples from vehicle treated and antalarmin treated groups.\nEndometriosis and antalarmin have long-lasting effects in the brain. Previous work reported a decrease in CRH within hippocampus of animals with endometriosis compared to sham rats that were subject to stress. Given that antalarmin readily crosses the blood brain barrier, the effects of treatment in the hippocampus was quantified. […] It appears that the increase in CRH1 was balanced out by an equally similar increase in CRH2. This was not observed in the vehicle treated groups (FIGS. 10A and 10B). mRNA was collected and quantified as described in Example 1. […]"}, "[2]": {"tested_on": "CRH, UCN1, CRHR1, CRHR2 and glucocorticoid receptor (GR) mRNA", "assay": "qRT-PCR of mRNA levels in uterus and endometriosis vesicles", "format": "in vivo, rat", "conditions": "normalized to sham uterus, day 60", "description": "as §1, §2\nGraphPad Prism 6.0 (GraphPad Software, San Diego, Calif.) was used to prepare graphs and run statistical analyses. Data is presented as mean difference+SEM and a p value <0.05 was considered statistically significant. The variability between groups was first assessed followed by a test for outlier values. […] A One-way analysis of variance (ANOVA) was used to compare behaviors. A one-sample t-test against the sham rats value normalized to 1.0. was used to assess RT-PCR results. A repeated measures One-way ANOVA was used to compare changes in weight gain between treatment groups."}, "[3]": {"assay": "Body weight monitoring of rats with endometriosis", "format": "in vivo, rat", "conditions": "vs vehicle", "source_text": "Female Sprague Dawley rats of 60 days old were used in the experiments (weighing between 190-220 grams). Rats were purchased from Ponce Research Institute Animal Facilities and littermates were never assigned to the same experimental group. Rats were housed two per cage and kept in a 12-hour light/dark cycle with food and water ad libitum. All experimental procedures were approved by the Ponce Health Sciences University (protocol #202) and the University of Texas at Rio Grande Valley (protocol #2016-004) Institutional Animal Care and Use Committees and adhere to the NIH Guide for the Care and Use of Laboratory Animals. Rats were weighed twice per week to monitor their adequate development and once a day during the drug administration period; also, estrous cycles were monitored before and after treatment to assess possible effects of the drug on reproductive cyclicity.\nInconsistencies in the effect of antalarmin on […] rodent body weight can happen. The Group 2 rat weight changes were monitored during the drug administration period and every week afterwards during the development of endometriosis."}, "[4]": {"tested_on": "corticosterone, adrenocorticotropic hormone (ACTH), IL-6", "assay": "ELISA of serum corticosterone and ACTH and of peritoneal fluid IL-6", "format": "in vivo, rat", "conditions": "at sacrifice", "source_text": "It was verified that the animals were deeply anesthetized. Rats were weighed, and a cytological smear taken to verify stage of the estrous cycle. The peritoneal and thoracic cavities were opened, and a blood sample was collected directly from the heart. Following this, peritoneal fluid was collected using a sterile plastic pipette. Examination was directed to the presence of endometriosis vesicles. The implants that developed into vesicles were excised from the mesentery, weighed and measured using a digital caliper. Classification of vesicles was carried out and assigned the following grades: grade 1=disappeared; grade 2=0.01-1.99 mm; grade 3=2-4.49 mm; grade 4=4.5-5.99 mm; grade 5=6.0 mm or larger. In sham animals, empty suture sites were counted and collected. In addition to the endometriosis vesicles, the adrenal glands were collected, all surrounding fatty tissue was removed, and the cleared adrenal glands were weighed. Additionally, tissues from colon and the left uterine horn were collected. All tissues were flash frozen and stored at −80° until further processing.\nSerum and peritoneal fluid samples from animals were tested for levels of corticosterone, adrenocorticotropic hormone (ACTH) and the pro-inflammatory cytokine IL-6 following instructions in the commercial kits. The following kits were used: Corticosterone rat/mouse kit (Cat. #79175; IBL America, Minneapolis, Minn.); Rat IL-6 pre-coated ELISA kit (Cat. #437107; BioLegend, San Diego, Calif.); Mouse/rat ACTH ELISA kit (Cat. # AC018T-100, Calbiotech, El Cajon, Calif.)."}, "stress reactivity": {"tested_on": "stress reactivity", "assay": "Swim stress challenge", "format": "in vivo, rat", "conditions": "day 59; vs vehicle control group"}, "[5]": {"conditions": "normalized to sham, large variability"}}}
{"smiles": "CCCCN(CC)c1nc(C)nc2c1c(C)c(C)n2-c1c(C)cc(C)cc1C", "note": "[antalarmin]", "values": [{"measurement": "reduction of the number of implantation sites", "setting": "implantation sites", "value": 70, "unit": "%"}, {"measurement": "hippocampal CRH mRNA", "setting": "[1]; compared to sham", "value": "increase in hippocampal CRH mRNA of similar magnitude"}, {"measurement": "hippocampal GR mRNA", "setting": "[1]; compared to sham", "value": "fourfold increase"}, {"measurement": "hippocampal CRHR1 mRNA increase", "setting": "[1]; [5]", "value": 15, "unit": "fold"}, {"measurement": "hippocampal CRHR2 mRNA increase", "setting": "[1]; [5]", "value": 15, "unit": "fold"}, {"measurement": "UCN1 mRNA in uterus and vesicles", "setting": "[2]", "value": "not altered"}, {"measurement": "glucocorticoid receptor (GR) mRNA in uterus", "setting": "[2]", "value": "no changes in uterus"}, {"measurement": "glucocorticoid receptor (GR) mRNA in vesicles", "setting": "[2]", "value": "significant mRNA fold increase"}, {"measurement": "CRHR2 mRNA in uterus and vesicles", "setting": "[2]; increase only in vesicles of vehicle animals", "value": "No other changes were observed"}, {"measurement": "CRHR1 mRNA in endometriosis vesicles", "setting": "[2]; increased in vehicle group", "value": "this increase was not observed"}, {"measurement": "CRH mRNA in uterus and vesicles", "setting": "[2]; two-fold increase in vehicle rats", "value": "this increase was not observed"}, {"measurement": "weight gain in subsequent weeks", "setting": "[3]; by week 7 and 8 after endometriosis induction", "value": "significantly lower weight gain"}, {"measurement": "body weight during and just after drug administration", "setting": "[3]; day 7 and 2 days after treatment stopped", "value": "weighed significantly less"}, {"measurement": "IL-6 in peritoneal fluid", "setting": "[4]; 53 days after treatment", "value": "did not produce any change"}, {"measurement": "serum corticosterone", "setting": "[4]; day 60", "value": "slightly elevated"}, {"measurement": "serum adrenocorticotropic hormone (ACTH)", "setting": "[4]; day 60, compared to vehicle group", "value": "significantly elevated levels"}, {"measurement": "swim stress behavioral parameters (immobility, swimming, struggling, diving)", "setting": "stress reactivity", "value": "not different from the control group"}]}
